Where a name gives a salt, the structure may show the parent alone.

In experiment [1] the target is T1, NHE3 (UniProt P48764).
T1 sequence (P48764 1-834): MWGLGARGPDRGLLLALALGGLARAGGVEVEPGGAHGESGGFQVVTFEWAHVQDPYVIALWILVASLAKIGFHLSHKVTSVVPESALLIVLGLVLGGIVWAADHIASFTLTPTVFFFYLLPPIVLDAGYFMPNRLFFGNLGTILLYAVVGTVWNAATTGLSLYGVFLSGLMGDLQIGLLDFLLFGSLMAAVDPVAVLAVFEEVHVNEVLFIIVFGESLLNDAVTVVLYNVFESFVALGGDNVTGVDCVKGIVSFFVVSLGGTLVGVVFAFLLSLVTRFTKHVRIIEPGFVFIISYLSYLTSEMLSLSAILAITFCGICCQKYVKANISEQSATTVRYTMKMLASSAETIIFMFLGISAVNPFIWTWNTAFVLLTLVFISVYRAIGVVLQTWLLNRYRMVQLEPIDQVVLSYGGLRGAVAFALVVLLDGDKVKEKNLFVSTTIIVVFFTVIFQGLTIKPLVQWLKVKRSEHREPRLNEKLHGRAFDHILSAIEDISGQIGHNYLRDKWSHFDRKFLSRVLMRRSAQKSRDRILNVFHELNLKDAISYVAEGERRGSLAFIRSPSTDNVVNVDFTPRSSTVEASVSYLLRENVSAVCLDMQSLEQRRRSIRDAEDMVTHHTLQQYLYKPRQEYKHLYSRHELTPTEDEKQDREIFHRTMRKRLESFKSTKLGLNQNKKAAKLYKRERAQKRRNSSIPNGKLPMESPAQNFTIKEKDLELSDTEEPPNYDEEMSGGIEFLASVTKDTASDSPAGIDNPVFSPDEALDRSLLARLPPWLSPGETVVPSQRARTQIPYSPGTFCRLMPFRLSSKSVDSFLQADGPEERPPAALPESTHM
In words: Cell-based NHE3 activity under transient conditions (BCECF-AM intracellular pH, FLIPR). Details: species or system Rat or Human. The following applies: opossum kidney cells expressing NHE3, read-out: Cell-based NHE3 inhibition IC50 (uM) under transient conditions. The source says:
(§1) Opossum kidney (OK) cells were obtained from ATCC and cultured and expanded according to its instructions. OK monoclonal stable cell lines expressing the Rat NHE3 (Gene Bank registration number: M85300) protein and OK monoclonal stable cell lines expressing the Human NHE3 (Gene Bank registration number: NM_004174.1) protein were constructed by lentivirus infection.
The general procedure of the cell-based NHE3 activity experiments under transient conditions (transient inhibition) was based on an adaptation method of the pH-sensitive dye method originally reported by Tisen (Proc. Natl. Acad. Sci. USA) (1984) 81(23):7436-7440) to measure rat NHE3-mediated Na+-dependent reverse H+ transport, and was optimized according to the instructions “Measuring Intracellular pH With the FLIPR and FLIPR 384 Fluorometric Imaging Plate Reader Systems” published by Molecular Devices. The specific method was: Rat NHE3 OK monoclonal cells or Human NHE3 OK monoclonal cells were inoculated into 384-well plates and grew overnight. The medium was aspirated from the wells and the cells were washed twice with FLIPR buffer (Hank's BSS 1×, 20 mM HEPES, 1% BSA) followed by incubation with FLIPR buffer (Hank's BSS 1×, 20 mM HEPES, 1% BSA) containing […] BCECF-AM (Invitrogen) for 45 min at room temperature. Subsequently, […] of 200 mM NH4Cl-HEPES buffer (Hank's BSS 1×, 20 mM HEPES, 200 mM NH4Cl) was added and the cells were incubated for 15-20 minutes at room temperature. Cells were washed twice with 20 mM NH4Cl-HEPES buffer (Hank's BSS 1×, 20 mM HEPES, 20 mM NH4Cl). NHE3-mediated pH sensitization in cells was normalized by addition of containing 0.4 mM amiloride (EIPA) and […] test compound or Na-HEPES buffer (100 mM NaCl, 50 mM HEPES, 10 mM glucose, 5 mM KCl, 2 mM CaCl2), 1 mM MgCl2, pH 7.4) and monitoring of BCECF-AM fluorescence at λem 535 nm excitated by λex 440 nm and λex 490 nm respectively. Ratio=fluorescence value (λex 490 nm)/fluorescence value (λex 440 nm) was set, the average value of the Ratio difference between the end time and the start time between the duplicate wells was calculated, the average value and the concentration value of the compound were drawn, and Graphpad Prism software was used to estimate IC50 value.

In experiment [2] the target is T1, NHE3. In words: Cell-based NHE3 activity under persistent conditions (60 min pre-incubation, compound removed). The arrangement: species or system Rat or Human. The following applies: opossum kidney cells expressing NHE3, read-out: Cell-based NHE3 inhibition IC50 (uM) under persistent conditions.
Excerpt: as §1
The general procedure of the cell-based NHE3 activity assay under persistent conditions (persistent inhibition) was: Rat NHE3 OK monoclonal cells or Human NHE3 OK monoclonal cells were inoculated into 384-well plates and grew overnight. The medium was aspirated from the wells and the cells were washed twice with FLIPR buffer (Hank's BSS 1×, 20 mM HEPES, 1% BSA) followed by the addition of Na-HEPES buffer containing […] test compound (100 mM NaCl, 50 mM HEPES, 10 mM glucose, 5 mM KCl, 2 mM CaCl2, 1 mM MgCl2, pH 7.4) and incubated for 60 minutes at room temperature. The compounds were aspirated from the wells and incubated with FLIPR buffer (Hank's BSS 1×, 20 mM HEPES, 1% BSA) containing […] BCECF-AM (Invitrogen) for 45 minutes at room temperature. Subsequently, […] of 200 mM NH4Cl-HEPES buffer (Hank's BSS 1×, 20 mM HEPES, 200 mM NH4Cl) was added and incubated for 15-20 minutes at room temperature. The cells were washed twice with 20 mM NH4Cl-HEPES buffer (Hank's BSS 1×, 20 mM HEPES, 20 mM […]). […] Ratio=fluorescence value (λex 490 nm)/fluorescence value (λex 440 nm) was set, the average value of the Ratio difference between the end time and the start time between the duplicate wells was calculated, the average value and the concentration value of the compound were drawn, and the dose-response-inhibition (four parameters) equation was used to estimate EC50 value by GraphpadPrism.

In general, IC50 refers to the point on the concentration scale where inhibition reaches its midpoint. For the molecule `CN1Cc2c(Cl)cc(Cl)cc2C(c2ccc3c(c2)S(=O)(=O)NC=C3)C1` (stereo not shown) [Intermediate E1-9], the IC50 in experiment [1] (intermediates) worked out at 3.17 µM.
Same read-out and setting: to `CN1Cc2c(Cl)cc(Cl)cc2C(c2cccc3c2CNS3(=O)=O)C1` (stereo not shown) [Intermediate A2-13] belongs 1.63 µM.
In the case of `CN1Cc2c(Cl)cc(Cl)cc2C(c2ccc3c(c2)S(=O)(=O)N(CCOCCOCCNC(=O)NCCCCNC(=O)NCCOCCOCCN2C=Cc4ccc(C5CN(C)Cc6c(Cl)cc(Cl)cc65)cc4S2(=O)=O)C=C3)C1` (stereo not shown) [Embodiment E1], the figures for the IC50 in experiment [1] (embodiment compounds) and in experiment [2] were 0.06 µM and 0.05 µM, respectively.
Take `CN1Cc2c(Cl)cc(Cl)cc2C(c2ccc3c(c2)C(=O)N(CCOCCOCCNC(=O)O[C@@H]2COC4C2OC[C@H]4OC(=O)NCCOCCOCCN2Cc4ccc(C5CN(C)Cc6c(Cl)cc(Cl)cc65)cc4C2=O)C3)C1` (stereo partly shown) [Embodiment G1]: the IC50 in experiment [1] (embodiment compounds) was determined as 0.93 µM; in experiment [2], 0.1 µM.
Turning to `CN1Cc2c(Cl)cc(Cl)cc2C(c2ccc3c(c2)C(=O)N(CCOCCOCCNC(=O)NCCCCNC(=O)NCCOCCOCCN2Cc4ccc(C5CN(C)Cc6c(Cl)cc(Cl)cc65)cc4C2=O)C3)C1` (stereo not shown) [Embodiment B1], the half-maximal inhibitory concentration (IC50) was 0.52 µM in experiment [1] (embodiment compounds) and 0.02 µM in experiment [2].
With `CN1Cc2c(Cl)cc(Cl)cc2C(c2ccc3c(c2)C(=O)N(CCOCCOCCOCCNC(=O)COCC(=O)NCCOCCOCCOCCN2Cc4ccc(C5CN(C)Cc6c(Cl)cc(Cl)cc65)cc4C2=O)C3)C1` (stereo not shown) [Embodiment J1], the concentration for half-maximal inhibition (IC50) in experiment [1] (embodiment compounds) was 0.43 µM; in experiment [2] it was 0.03 µM.
As for `CN1Cc2c(Cl)cc(Cl)cc2C(c2ccc3c(c2)C(=O)NC3)C1` (stereo not shown) [Intermediate B1-6], the IC50 in experiment [1] (intermediates) is 0.53 µM.
In the case of `CN1Cc2c(Cl)cc(Cl)cc2C(c2ccc3cnn(CCOCCOCCOCCNC(=O)NCCCCNC(=O)NCCOCCOCCOCCn4ncc5ccc(C6CN(C)Cc7c(Cl)cc(Cl)cc76)cc54)c3c2)C1` (stereo not shown) [Embodiment D2-P2 hydrochloride salt], the IC50 in experiment [1] (embodiment compounds) stood at 0.27 µM; in experiment [2] it was 0.12 µM.
Turning to `CN1Cc2c(Cl)cc(Cl)cc2C(c2ccc3c(c2)C(=O)N(CCOCCOCCNC(=O)[C@H](O)[C@H](O)[C@@H](O)[C@@H](O)C(=O)NCCOCCOCCN2Cc4ccc(C5CN(C)Cc6c(Cl)cc(Cl)cc65)cc4C2=O)C3)C1` (stereo partly shown) [Embodiment J4], the IC50 in experiment [1] (embodiment compounds) stood at 0.25 µM; in experiment [2] it was 0.05 µM.
Taken in the same sequence, the figures for `CN1Cc2c(Cl)cc(Cl)cc2C(c2ccc3c(c2)C(=O)N(CCOCCOCCOCCNC(=O)CN(CCN(CC(=O)O)CC(=O)NCCOCCOCCOCCN2Cc4ccc(C5CN(C)Cc6c(Cl)cc(Cl)cc65)cc4C2=O)CC(=O)O)C3)C1` (stereo not shown) [Embodiment F2] were 0.62 µM and 0.08 µM.
Regarding `CN1Cc2c(Cl)cc(Cl)cc2C(c2ccc3c(c2)S(=O)(=O)NCC3)C1` (stereo not shown) [Intermediate C1-11], the IC50 in experiment [1] (intermediates) was 1.24 µM.
As for `CN1Cc2c(Cl)cc(Cl)cc2C(c2ccc3cc[nH]c(=O)c3c2)C1` (stereo not shown) [Intermediate B5-6], the IC50 in experiment [1] (intermediates) came to 1.69 µM.
Take `CN1Cc2c(Cl)cc(Cl)cc2C(c2cccc3c2CNC3=O)C1` (stereo not shown) [Intermediate B2-6]: in experiment [1] (intermediates), the IC50 came to 0.17 µM.
As for `CN1Cc2c(Cl)cc(Cl)cc2C(c2cccc3c2CN(CCOCCOCCNC(=O)NCCCCNC(=O)NCCOCCOCCN2Cc4c(cccc4C4CN(C)Cc5c(Cl)cc(Cl)cc54)C2=O)C3=O)C1` (stereo not shown) [Embodiment B2], the IC50 in experiment [1] (embodiment compounds) amounted to 2.05 µM.
As for `CN1Cc2c(Cl)cc(Cl)cc2C(c2cccc3c2CN(CCOCCOCCNC(=O)NCCCCNC(=O)NCCOCCOCCN2Cc4c(C5CN(C)Cc6c(Cl)cc(Cl)cc65)cccc4S2(=O)=O)S3(=O)=O)C1` (stereo not shown) [Embodiment A2], in experiment [1] (embodiment compounds), the IC50 came to 3.14 µM.
For `CN1Cc2c(Cl)cc(Cl)cc2C(c2ccc3c(c2)S(=O)(=O)NC3)C1` (stereo not shown) [Intermediate A1-13], in experiment [1] (intermediates), the half-maximal inhibitory concentration (IC50) came out at 0.6 µM.
Same read-out and setting: to `CN1Cc2c(Cl)cc(Cl)cc2C(c2ccc3c(c2)CNC3=O)C1` (stereo not shown) [Intermediate B4-6] belongs 0.79 µM.
Consider `CN1Cc2c(Cl)cc(Cl)cc2C(c2ccc3cn[nH]c3c2)C1` (stereo not shown) [Intermediate D1-7], for which, in experiment [1] (intermediates), the half-maximal inhibitory concentration (IC50) stood at 1.44 µM.
